According to PMC11198769, “Enhancement of transcription efficiency by TAR-Tat system increases the functional expression of human olfactory receptors” (PLOS ONE, 2024):

Experiments:
Assay in all cases: Comprehensive analysis (screening) of hORs against n-hexanal
Assay type in all cases: cell-based
[1] = biological target: T1, OR2J3 (Homo sapiens, UniProt O76001); details: OR2J3, 500 μM n-hexanal, n = 1
T1 construct: Lucy tag (N); FLAG (N); Rho tag (N); expressed in transfected cells; host or cells: Flp-In T-REx-293 cells stably expressing RTP1S, Gαolf and Ric8-b
T1 sequence (O76001 1-311): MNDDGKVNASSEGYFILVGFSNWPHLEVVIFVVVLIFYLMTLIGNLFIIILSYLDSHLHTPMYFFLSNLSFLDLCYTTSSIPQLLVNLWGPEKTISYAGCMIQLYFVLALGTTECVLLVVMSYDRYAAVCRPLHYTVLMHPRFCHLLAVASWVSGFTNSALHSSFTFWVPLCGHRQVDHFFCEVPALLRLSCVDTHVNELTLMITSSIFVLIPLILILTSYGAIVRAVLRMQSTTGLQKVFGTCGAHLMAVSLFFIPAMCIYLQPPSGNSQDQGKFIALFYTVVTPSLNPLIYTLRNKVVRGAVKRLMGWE
Method: (§1) Transfection was performed as described in the “hOR assay,” but 12.5 ng of 379 hOR plasmids (hOR/pBApo and hOR/pHEK) was transfected with the 12.5 ng pGlosensor^TM-22F cAMP biosensor plasmid (Promega) in 384 plates per well. After loading the GloSensor cAMP substrate and preincubation, the assay buffer was added (30 μL/well). After 10 min of equilibration, luminescence was measured (L0). Then, 50 mM n-hexanal, which was diluted with 10% DMSO/assay buffer, was added (4.7 μL/well). After 9 min, luminescence was measured (L9min). All the L9min values were subtracted by the L0 value (ΔL).

[2] = biological target: T2, OR2W1 (Homo sapiens, UniProt Q9Y3N9); details: OR2W1, 500 μM n-hexanal, n = 1
T2 construct: Lucy tag (N); FLAG (N); Rho tag (N); expressed in transfected cells; host or cells: Flp-In T-REx-293 cells stably expressing RTP1S, Gαolf and Ric8-b
T2 sequence (Q9Y3N9 1-320): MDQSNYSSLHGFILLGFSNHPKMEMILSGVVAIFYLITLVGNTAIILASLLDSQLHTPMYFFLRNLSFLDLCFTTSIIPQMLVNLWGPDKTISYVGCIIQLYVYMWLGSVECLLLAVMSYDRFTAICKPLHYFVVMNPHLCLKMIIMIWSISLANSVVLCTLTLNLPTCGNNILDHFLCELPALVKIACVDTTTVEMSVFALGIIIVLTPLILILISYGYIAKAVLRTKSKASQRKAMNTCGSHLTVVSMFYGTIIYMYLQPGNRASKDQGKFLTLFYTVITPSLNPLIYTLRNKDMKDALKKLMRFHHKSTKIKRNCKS
Method: as §1

[3] = biological target: T3, OR10H3 (Homo sapiens, UniProt O60404); details: OR10H3, 500 μM n-hexanal, with the TAR-Tat system (hOR/pHEK), n = 1
T3 construct: Lucy tag (N); expressed in transfected cells; host or cells: Flp-In T-REx-293 cells stably expressing RTP1S, Gαolf and Ric8-b
T3 sequence (O60404 1-316): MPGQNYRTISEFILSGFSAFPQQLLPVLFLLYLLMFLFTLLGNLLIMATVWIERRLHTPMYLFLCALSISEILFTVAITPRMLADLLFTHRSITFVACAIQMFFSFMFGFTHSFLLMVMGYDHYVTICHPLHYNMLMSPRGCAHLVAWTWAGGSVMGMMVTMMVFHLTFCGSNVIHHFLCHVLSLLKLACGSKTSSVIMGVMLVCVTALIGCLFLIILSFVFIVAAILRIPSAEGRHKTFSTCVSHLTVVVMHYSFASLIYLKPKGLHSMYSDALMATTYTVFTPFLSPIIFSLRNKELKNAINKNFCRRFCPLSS
Method: as §1

[4] = biological target: T4, OR10C1 (Homo sapiens, UniProt Q96KK4); details: OR10C1, 500 μM n-hexanal, with the TAR-Tat system (hOR/pHEK), n = 1
T4 construct: Lucy tag (N); expressed in transfected cells; host or cells: Flp-In T-REx-293 cells stably expressing RTP1S, Gαolf and Ric8-b
T4 sequence (Q96KK4 1-312): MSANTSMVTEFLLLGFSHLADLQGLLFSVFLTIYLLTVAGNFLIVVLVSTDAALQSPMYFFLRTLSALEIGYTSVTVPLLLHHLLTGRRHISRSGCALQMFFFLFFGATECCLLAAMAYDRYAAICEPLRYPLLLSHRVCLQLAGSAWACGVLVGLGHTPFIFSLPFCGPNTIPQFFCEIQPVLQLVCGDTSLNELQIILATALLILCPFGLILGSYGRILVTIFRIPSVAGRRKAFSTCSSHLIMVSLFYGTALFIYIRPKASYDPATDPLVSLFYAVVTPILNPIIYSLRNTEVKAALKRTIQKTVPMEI
Method: as §1

[5] = biological target: T5, OR5M3 (Homo sapiens, UniProt Q8NGP4); details: OR5M3, 500 μM n-hexanal, with the TAR-Tat system (hOR/pHEK), n = 1
T5 construct: Lucy tag (N); FLAG (N); Rho tag (N); expressed in transfected cells; host or cells: Flp-In T-REx-293 cells stably expressing RTP1S, Gαolf and Ric8-b
T5 sequence (Q8NGP4 1-307): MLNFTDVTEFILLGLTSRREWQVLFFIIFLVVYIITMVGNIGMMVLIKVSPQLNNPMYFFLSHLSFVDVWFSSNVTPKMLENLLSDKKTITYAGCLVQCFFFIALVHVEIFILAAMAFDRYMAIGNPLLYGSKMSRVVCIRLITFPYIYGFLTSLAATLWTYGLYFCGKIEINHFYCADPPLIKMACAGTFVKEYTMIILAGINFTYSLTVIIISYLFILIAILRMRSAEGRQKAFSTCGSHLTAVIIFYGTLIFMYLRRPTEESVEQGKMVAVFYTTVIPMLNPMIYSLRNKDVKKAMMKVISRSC
Method: as §1

[6] = biological target: T6, OR4K5 (Homo sapiens, UniProt Q8NGD3); details: OR4K5, 500 μM n-hexanal, with the TAR-Tat system (hOR/pHEK), n = 1
T6 construct: Lucy tag (N); FLAG (N); Rho tag (N); expressed in transfected cells; host or cells: Flp-In T-REx-293 cells stably expressing RTP1S, Gαolf and Ric8-b
T6 sequence (Q8NGD3 1-323): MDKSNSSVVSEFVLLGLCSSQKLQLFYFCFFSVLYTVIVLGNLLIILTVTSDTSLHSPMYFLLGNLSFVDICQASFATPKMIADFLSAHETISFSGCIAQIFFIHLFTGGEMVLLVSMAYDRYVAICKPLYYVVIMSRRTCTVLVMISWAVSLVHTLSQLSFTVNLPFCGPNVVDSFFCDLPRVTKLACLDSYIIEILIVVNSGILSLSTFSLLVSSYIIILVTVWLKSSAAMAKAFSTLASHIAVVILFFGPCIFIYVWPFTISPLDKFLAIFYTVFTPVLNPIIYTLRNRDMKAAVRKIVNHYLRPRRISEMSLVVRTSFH
Method: as §1

[7] = with the TAR-Tat system (hOR/pHEK)
[8] = without the TAR-Tat system (control plasmid)

Structure (SMILES): CCCCCC=O [n-hexanal]
- response value (ΔL) [1, 7]: 1580
- response value (ΔL) [1, 8]: 549
- response value (ΔL) [2, 7]: 9310
- response value (ΔL) [2, 8]: 3463
- response value (ΔL) [3]: > 500
- response value (ΔL) [4]: > 500
- response value (ΔL) [5]: > 500
- response value (ΔL) [6]: > 500
